In brackets after ≈: the same amount, converted by molar mass.
Experiments:
[1] = Selectivity ratio of HC50 for sheep RBC to MIC for Escherichia coli ATCC 25922; format: functional
[2] = Toxicity in sheep RBC assessed as hemolytic activity after 1 hr; format: cell-based, Ovis aries, Erythrocyte; conditions: sheep red blood cells
[3] = test system: Micrococcus luteus; assay: Antibacterial activity against Micrococcus luteus ATCC 10240 after 48 hrs by microtiter broth dilution method; format: functional; conditions: ATCC 10240, 48 h
[4] = Selectivity ratio of MHC for sheep RBC to MIC for Listeria monocytogenes SOR 100; format: functional
[5] = Toxicity in sheep RBC assessed as minimal hemolytic concentration after 1 hr; format: cell-based, Ovis aries; conditions: erythrocyte
[6] = test system: Klebsiella aerogenes; assay: Antibacterial activity against Enterobacter aerogenes ATCC 13048 after 48 hrs by microtiter broth dilution method; format: functional; conditions: ATCC 13048, 48 h
[7] = test system: Listeria monocytogenes; assay: Antibacterial activity against Listeria monocytogenes SOR 100 after 48 hrs by microtiter broth dilution method; format: functional; conditions: SOR 100, 48 h
[8] = Half life in bovine serum; format: ADME, cell-free, Bos taurus; conditions: cattle
[9] = Toxicity in sheep RBC assessed as hemolytic activity at 100 uM after 1 hr; format: cell-based, Ovis aries, Erythrocyte; conditions: sheep red blood cells, read-out: Activity
[10] = test system: Klebsiella oxytoca; assay: Antibacterial activity against Klebsiella oxytoca CIP 7932 after 48 hrs by microtiter broth dilution method; format: functional; conditions: CIP 7932, 48 h
[11] = test system: Staphylococcus aureus; assay: Antibacterial activity against Staphylococcus aureus ATCC 25923 after 48 hrs by microtiter broth dilution method; format: functional; conditions: ATCC 25923, 48 h
[12] = test system: Streptococcus equinus; assay: Antibacterial activity against Streptococcus equinus ATCC 5623 after 48 hrs by microtiter broth dilution method; format: functional; conditions: ATCC 5623, 48 h
[13] = test system: Salmonella enterica; assay: Antibacterial activity against Salmonella enterica ATCC 13076 after 48 hrs by microtiter broth dilution method; format: functional; conditions: ATCC 13076, 48 h
[14] = Selectivity ratio of HC50 for sheep RBC to MIC for Staphylococcus aureus ATCC 25923; format: functional
[15] = test system: Lactococcus garvieae; assay: Antibacterial activity against Lactococcus garvieae ATCC 43921 after 48 hrs by microtiter broth dilution method; format: functional; conditions: ATCC 43921, 48 h
[16] = test system: Pseudomonas aeruginosa; assay: Antibacterial activity against Pseudomonas aeruginosa ATCC 27853 after 48 hrs by microtiter broth dilution method; format: functional; conditions: ATCC 27853, 48 h
[17] = test system: Enterococcus faecalis; assay: Antibacterial activity against Enterococcus faecalis CIP 186 after 48 hrs by microtiter broth dilution method; format: functional; conditions: CIP 186, 48 h
[18] = test system: Priestia megaterium; assay: Antibacterial activity against Bacillus megaterium ATCC 10778 after 48 hrs by microtiter broth dilution method; format: functional; conditions: ATCC 10778, 48 h
[19] = test system: Escherichia coli; assay: Antibacterial activity against Escherichia coli ATCC 25922 after 48 hrs by microtiter broth dilution method; format: functional; conditions: ATCC 25922, 48 h
[20] = test system: Aeromonas caviae; assay: Antibacterial activity against Aeromonas caviae ATCC 15648 after 48 hrs by microtiter broth dilution method; format: functional; conditions: ATCC 15648, 48 h
[21] = Selectivity ratio of MHC for sheep RBC to MIC for Staphylococcus aureus ATCC 25923; format: functional

MIC [3]: 3.12 µM (≈ 3.18 µg/mL)
MIC [6]: 12.5 µM (≈ 12.8 µg/mL)
MIC [7]: 6.25 µM (≈ 6.38 µg/mL)
half-life [8]: > 2 h
MIC [10]: 25 µM (≈ 25.5 µg/mL)
MIC [11]: 25 µM (≈ 25.5 µg/mL)
MIC [12]: 6.25 µM (≈ 6.38 µg/mL)
MIC [13]: 25 µM (≈ 25.5 µg/mL)
MIC [15]: 25 µM (≈ 25.5 µg/mL)
MIC [16]: 50 µM (≈ 51 µg/mL)
MIC [17]: 50 µM (≈ 51 µg/mL)
MIC [18]: 1.56 µM (≈ 1.59 µg/mL)
MIC [19]: 25 µM (≈ 25.5 µg/mL)
MIC [20]: > 100 µM
Structure (SMILES): N=C(N)NCCC[C@@H]1NC(=O)CN(CC2CCCCC2)NC(=O)[C@H](Cc2c[nH]c3ccccc23)NC(=O)CN(Cc2ccc(F)cc2)NC(=O)[C@H](Cc2c[nH]c3ccccc23)NC(=O)CN(CCCCN)NC1=O
Selectivity ratio [1]: 4
HC50 at 1 h [2]: > 100 µM
Selectivity ratio [4]: 16
MHC [5]: 100 µM
hemolysis at 1 h, 100 µM [9]: 2.5%
Selectivity ratio [14]: 4
Selectivity ratio [21]: 4
